23 compounds from patent US12686673B2 (Blueprint Medicines Corporation, priority 2020, dated 2026) can be followed below.

Structures are written as SMILES. Bounds are passed on as bounds.

Holding throughout (assay type): cell-based
For assay [1], the target named is EGFR(D770_N771insSVD) expressing Ba/F3 stable cell line (Homo sapiens, UniProt P00533, DUP768-770, cells depend on it). The assay is described as follows: Cellular proliferation (Alamar Blue) assay, EGFR D770_N771insSVD Ba/F3. The note with it: 72 hr, read-out: D770 IC50. The essentials:
(§1)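 Steps: plate 15,000 Ba/F3 cells/well in RPMI/10% FBS; rest 16-18 h, 37 °C; add compound at final 10-0.0005 μM (3-fold series) or DMSO; incubate 72 hr; add Alamar Blue; read after 3 h.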

Assay [2] has as its target EGFR (A767_dupASV) expressing Ba/F3 stable cell line (Homo sapiens, UniProt P00533, DUP767-769, cells depend on it). The assay is described as follows: Cellular proliferation (Alamar Blue) assay, EGFR A767_dupASV Ba/F3. The note with it: 72 hr, read-out: A767 IC50. The essentials:
as §1
(In general: Alamar Blue is a resazurin reagent that responds to reducing activity.)

The subject of assay [3] is A431 cells. Nature of the assay: Cellular proliferation (Alamar Blue) assay, A431. The settings on record: Homo sapiens, A-431; A431 cells, 72 hr, Alamar Blue; read-out: A431 IC50.

Chain of EGFR (A767_dupASV) expressing Ba/F3 stable cell line (P00533 with tags, fused parts or gaps DUP767-769): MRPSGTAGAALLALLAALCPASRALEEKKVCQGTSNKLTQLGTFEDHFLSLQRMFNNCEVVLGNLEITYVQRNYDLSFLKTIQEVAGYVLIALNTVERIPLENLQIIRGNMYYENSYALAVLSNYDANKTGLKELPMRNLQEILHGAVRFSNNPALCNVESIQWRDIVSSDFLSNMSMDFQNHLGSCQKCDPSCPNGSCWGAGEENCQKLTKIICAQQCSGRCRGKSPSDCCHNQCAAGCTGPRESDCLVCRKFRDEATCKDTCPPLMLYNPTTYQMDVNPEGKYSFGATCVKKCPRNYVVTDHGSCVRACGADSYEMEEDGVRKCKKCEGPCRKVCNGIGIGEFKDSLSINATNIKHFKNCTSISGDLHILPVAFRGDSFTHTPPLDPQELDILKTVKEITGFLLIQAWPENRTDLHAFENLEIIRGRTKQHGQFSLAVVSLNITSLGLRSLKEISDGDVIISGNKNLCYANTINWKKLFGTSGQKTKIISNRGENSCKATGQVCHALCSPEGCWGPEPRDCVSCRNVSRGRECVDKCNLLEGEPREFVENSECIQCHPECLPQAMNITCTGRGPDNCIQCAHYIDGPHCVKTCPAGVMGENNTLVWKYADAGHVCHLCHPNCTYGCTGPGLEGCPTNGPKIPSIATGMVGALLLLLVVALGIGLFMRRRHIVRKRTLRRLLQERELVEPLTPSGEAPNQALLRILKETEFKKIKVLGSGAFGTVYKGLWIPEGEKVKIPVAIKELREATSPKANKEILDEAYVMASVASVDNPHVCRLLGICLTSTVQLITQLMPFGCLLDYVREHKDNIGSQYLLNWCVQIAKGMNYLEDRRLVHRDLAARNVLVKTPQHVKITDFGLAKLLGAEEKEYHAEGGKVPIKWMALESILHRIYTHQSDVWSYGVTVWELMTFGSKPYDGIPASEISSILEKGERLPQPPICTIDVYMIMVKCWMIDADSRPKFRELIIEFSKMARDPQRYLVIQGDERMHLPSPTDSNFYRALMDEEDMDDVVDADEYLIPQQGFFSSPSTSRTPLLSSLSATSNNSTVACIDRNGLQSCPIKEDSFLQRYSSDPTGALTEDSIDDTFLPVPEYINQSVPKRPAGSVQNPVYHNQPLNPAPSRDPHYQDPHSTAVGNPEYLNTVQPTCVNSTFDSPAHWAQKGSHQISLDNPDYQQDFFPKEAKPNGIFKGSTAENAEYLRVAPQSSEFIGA
Chain of EGFR(D770_N771insSVD) expressing Ba/F3 stable cell line (P00533 with tags, fused parts or gaps DUP768-770): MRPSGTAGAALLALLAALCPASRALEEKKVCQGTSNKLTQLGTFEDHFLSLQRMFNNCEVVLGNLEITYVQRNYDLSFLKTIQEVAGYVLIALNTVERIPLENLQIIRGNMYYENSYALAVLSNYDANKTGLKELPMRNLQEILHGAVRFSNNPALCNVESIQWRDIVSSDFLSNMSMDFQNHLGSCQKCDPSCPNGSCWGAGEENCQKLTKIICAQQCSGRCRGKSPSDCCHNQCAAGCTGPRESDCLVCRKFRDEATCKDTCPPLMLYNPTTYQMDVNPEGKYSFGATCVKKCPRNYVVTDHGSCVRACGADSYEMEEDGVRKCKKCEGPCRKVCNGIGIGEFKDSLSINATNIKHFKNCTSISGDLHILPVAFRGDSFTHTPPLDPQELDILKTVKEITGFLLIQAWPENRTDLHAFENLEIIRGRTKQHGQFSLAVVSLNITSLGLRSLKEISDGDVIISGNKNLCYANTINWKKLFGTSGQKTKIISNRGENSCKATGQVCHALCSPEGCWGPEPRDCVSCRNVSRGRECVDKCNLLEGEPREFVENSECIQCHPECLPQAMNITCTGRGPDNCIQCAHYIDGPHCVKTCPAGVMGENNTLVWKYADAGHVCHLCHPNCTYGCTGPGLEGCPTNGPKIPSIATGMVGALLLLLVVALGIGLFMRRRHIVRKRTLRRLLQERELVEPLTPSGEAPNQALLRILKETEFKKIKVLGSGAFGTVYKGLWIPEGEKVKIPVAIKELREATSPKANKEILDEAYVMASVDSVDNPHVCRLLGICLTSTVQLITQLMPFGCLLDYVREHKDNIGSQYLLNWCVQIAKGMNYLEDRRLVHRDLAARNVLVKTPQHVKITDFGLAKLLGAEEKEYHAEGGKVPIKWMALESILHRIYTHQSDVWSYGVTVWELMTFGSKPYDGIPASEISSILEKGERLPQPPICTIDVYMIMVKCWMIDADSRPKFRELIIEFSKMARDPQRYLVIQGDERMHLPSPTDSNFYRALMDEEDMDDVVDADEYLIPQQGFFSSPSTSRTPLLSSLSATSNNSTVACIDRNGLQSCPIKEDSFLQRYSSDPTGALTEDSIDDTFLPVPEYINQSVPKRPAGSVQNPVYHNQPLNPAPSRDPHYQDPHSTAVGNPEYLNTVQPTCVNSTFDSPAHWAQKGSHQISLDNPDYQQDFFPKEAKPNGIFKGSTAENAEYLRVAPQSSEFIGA

Consider `C=CC(=O)Nc1ccc(F)c(Nc2nc(Nc3nc(C)cs3)ncc2-c2ccc(C(F)(F)F)cc2)c1` [Compound 213, N-(4-fluoro-3-((2-((4-methylthiazol-2-yl)amino)-5-(4-(trifluoromethyl)phenyl)pyrimidin-4-yl)amino)phenyl)acrylamide], for which the GI50 in assay [1] came out at 1290 nM; in assay [2] it was 3680 nM. In assay [3], the IC50 (commonly the midpoint of a concentration-inhibition curve) is 1820 nM.
Consider `C=CC(=O)Nc1ccc(F)c(Nc2nc(Nc3cn(C)cn3)ncc2-c2ccc(C(F)(F)F)cc2)c1` [Compound 214, N-(4-fluoro-3-((2-((1-methyl-1H-imidazol-4-yl)amino)-5-(4-(trifluoromethyl)phenyl)pyrimidin-4-yl)amino)phenyl)acrylamide], for which the GI50 in assay [1] came to 308 nM; in assay [2] it was 543 nM. In addition, the IC50 in assay [3] was over 10000 nM.
`C=CC(=O)Nc1ccc(F)c(Nc2nc(Nc3nccs3)ncc2-c2ccc(C(F)(F)F)cc2)c1` [Compound 215, N-(4-fluoro-3-((2-(thiazol-2-ylamino)-5-(4-(trifluoromethyl)phenyl)pyrimidin-4-yl)amino)phenyl)acrylamide]: the GI50 in assay [1] was 991 nM; in assay [2] it was over 10000 nM. Besides, the IC50 in assay [3] amounted to 2270 nM.
On the same counts, the results for `C=CC(=O)Nc1ccc(F)c(Nc2nc(Nc3csc(C)c3)ncc2-c2ccc(C(F)(F)F)cc2)c1` [Compound 217, N-(4-fluoro-3-((2-((5-methylthiophen-3-yl)amino)-5-(4-(trifluoromethyl)phenyl)pyrimidin-4-yl)amino)phenyl)acrylamide] are 916 nM, 1130 nM and over 10000 nM.
Turning to `C=CC(=O)Nc1ccc(F)c(Nc2nc(Nc3cccc(CN(C)C)c3)ncc2-c2ccc(C(F)(F)F)cc2)c1` [Compound 218, N-(3-((2-((3-((dimethylamino)methyl)phenyl)amino)-5-(4-(trifluoromethyl)phenyl)pyrimidin-4-yl)amino)-4-fluorophenyl)acrylamide], the GI50 amounted to 1690 nM in assay [1] and 8470 nM in assay [2]. Also, the IC50 in assay [3] was 1580 nM.
The like results for `C=CC(=O)Nc1ccc(F)c(Nc2nc(Nc3cnn(C4CCOCC4)c3)ncc2-c2ccc(C(F)(F)F)cc2)c1` [Compound 220, N-(4-fluoro-3-((2-((1-(tetrahydro-2H-pyran-4-yl)-1H-pyrazol-4-yl)amino)-5-(4-(trifluoromethyl)phenyl)pyrimidin-4-yl)amino)phenyl)acrylamide] were, in that order, 110 nM, 211 nM and 133 nM.
On the same counts, the results for `C=CC(=O)Nc1ccc(F)c(Nc2nc(Nc3cnn(C)c3)ncc2N2CCOCC2)c1` [Compound 222, N-(4-fluoro-3-((2-((1-methyl-1H-pyrazol-4-yl)amino)-5-morpholinopyrimidin-4-yl)amino)phenyl)acrylamide] are over 10000 nM, over 10000 nM and 8150 nM.
The like results for `C=CC(=O)Nc1cccc(Oc2nc(Nc3cnn(C)c3)ncc2N2CCN(C)CC2)c1` [Compound 223, N-(3-((2-((1-methyl-1H-pyrazol-4-yl)amino)-5-(4-methylpiperazin-1-yl)pyrimidin-4-yl)oxy)phenyl)acrylamide] were, in that order, 9030 nM, 9700 nM and 3920 nM.
Take `C=CC(=O)Nc1cccc(Nc2nc(Nc3cnn(C)c3)nc(NC)c2-c2ccc(C(F)(F)F)cc2)c1` [Compound 224, N-[3-({2-[(1-methyl-1H-pyrazol-4-yl)amino]-6-(methylamino)-5-[4-(trifluoromethyl)phenyl]pyrimidin-4-yl}amino)phenyl] prop-2-enamide]: the GI50 in assay [1] and in assay [2] was over 10000 nM in each case. Besides, the IC50 in assay [3] is over 10000 nM.
Regarding `C=CC(=O)Nc1ccc(F)c(Nc2nc(Nc3cnoc3)ncc2-c2ccc(C(F)(F)F)cc2)c1` [Compound 225, N-[4-fluoro-3-({2-[(1,2-oxazol-4-yl)amino]-5-[4-(trifluoromethyl)phenyl]pyrimidin-4-yl}amino)phenyl]prop-2-enamide], the GI50 in assay [1] was 1240 nM; in assay [2] it was 2690 nM. Besides, the IC50 in assay [3] turned out to be 637 nM.
On the same counts, the results for `C=CC(=O)Nc1ccc(F)c(Nc2nc(Nc3cnn(C)c3)ncc2C2=CCN(C)C2)c1` [Compound 226, N-[4-fluoro-3-({2-[(1-methyl-1H-pyrazol-4-yl)amino]-5-(1-methyl-2,5-dihydro-1H-pyrrol-3-yl)pyrimidin-4-yl}amino)phenyl]prop-2-enamide] are 793 nM, 1610 nM and 1780 nM.
`C=CC(=O)Nc1ccc(F)c(Nc2nc(Nc3cnn(C)c3)ncc2C2CCN(C)C2)c1` (stereo not drawn) [Compound 227, N-[4-fluoro-3-({2-[(1-methyl-1H-pyrazol-4-yl)amino]-5-(1-methylpyrrolidin-3-yl)pyrimidin-4-yl}amino)phenyl]prop-2-enamide]: the GI50 in assay [1] was over 10000 nM; in assay [2], 7090 nM. Also, the IC50 in assay [3] came out at 6060 nM.
On the same counts, the results for `C=CC(=O)Nc1cccc(N(C)c2nc(Nc3cnn(C)c3)ncc2-c2ccc(C(F)(F)F)cc2)c1` [Compound 229, N-(3-(methyl(2-((1-methyl-1H-pyrazol-4-yl)amino)-5-(4-(trifluoromethyl)phenyl)pyrimidin-4-yl)amino)phenyl)acrylamide] are 318 nM, 426 nM and 222 nM.
The like results for `C=CC(=O)Nc1ccc(F)c(Nc2nc(Nc3cnn(C)c3)nc3ccc(C(F)(F)F)cc23)c1` [Compound 231, N-(4-fluoro-3-((2-((1-methyl-1H-pyrazol-4-yl)amino)-6-(trifluoromethyl)quinazolin-4-yl)amino)phenyl)acrylamide] were, in that order, 8550 nM, 3900 nM and 4210 nM.
On the same counts, the results for `C=CC(=O)Nc1ccc(F)c(Nc2nc(Nc3cccnc3)ncc2-c2ccc(C(F)(F)F)cc2)c1` [Compound 232, N-(4-fluoro-3-((2-(pyridin-3-ylamino)-5-(4-(trifluoromethyl)phenyl)pyrimidin-4-yl)amino)phenyl)acrylamide] are 724 nM, 1130 nM and 539 nM.
Consider `C=CC(=O)Nc1cccc(Oc2nc(Nc3ccc(CN(C)C)cc3)ncc2-c2ccc(C(F)(F)F)cc2)c1` [Compound 234, N-(3-((2-((4-((dimethylamino)methyl)phenyl)amino)-5-(4-(trifluoromethyl)phenyl)pyrimidin-4-yl)oxy)phenyl)acrylamide], for which the GI50 is 383 nM in assay [1] and 948 nM in assay [2]. Besides, the IC50 in assay [3] turned out to be 1130 nM.
For `C=CC(=O)Nc1cccc(Oc2nc(Nc3cnn(CCN(C)C)c3)ncc2-c2ccc(C(F)(F)F)cc2)c1` [Compound 235, N-(3-((2-((1-(2-(dimethylamino)ethyl)-1H-pyrazol-4-yl)amino)-5-(4-(trifluoromethyl)phenyl)pyrimidin-4-yl)oxy)phenyl)acrylamide], the results for the GI50 in assay [1] and in assay [2] were 619 nM and 980 nM, respectively. In assay [3], the IC50 turned out to be 1070 nM.
Regarding `C=CC(=O)Nc1cccc(Oc2nc(NCCN(C)C)ncc2-c2ccc(C(F)(F)F)cc2)c1` [Compound 236, N-(3-((2-((2-(dimethylamino)ethyl)amino)-5-(4-(trifluoromethyl)phenyl)pyrimidin-4-yl)oxy)phenyl)acrylamide], the GI50 in assay [1] and in assay [2] was over 10000 nM throughout. The IC50 in assay [3] is over 10000 nM.
Regarding `C=C=CC(=O)Nc1ccc(F)c(Nc2nc(Nc3cnn(C)c3)ncc2-c2ccc(C(F)(F)F)cc2)c1` [Compound 251, N-(4-fluoro-3-((2-((1-methyl-1H-pyrazol-4-yl)amino)-5-(4-(trifluoromethyl)phenyl)pyrimidin-4-yl)amino)phenyl)buta-2,3-dienamide], the GI50 in assay [1] came to 10000 nM; in assay [2] it was 9880 nM. For the same compound, in assay [3], the IC50 came to 9770 nM.
On the same counts, the results for `Cn1cc(Nc2ncc(-c3ccc(C(F)(F)F)cc3)c(Nc3cc(N)ccc3F)n2)cn1` [Compound 257, N^4-(5-amino-2-fluorophenyl)-N^2-(1-methyl-1H-pyrazol-4-yl)-5-(4-(trifluoromethyl)phenyl)pyrimidine-2,4-diamine] are over 10000 nM, over 10000 nM and over 10000 nM.
As for `Cn1cc(Nc2ncc(-c3ccc(CC(F)(F)F)cc3)c(Nc3cc(NC(=O)/C=C/CF)ccc3F)n2)cn1` [Compound 303, (E)-4-fluoro-N-(4-fluoro-3-((2-((1-methyl-1H-pyrazol-4-yl)amino)-5-(4-(2,2,2-trifluoroethyl)phenyl)pyrimidin-4-yl)amino)phenyl)but-2-enamide], the results for the GI50 in assay [1] and in assay [2] were 111 nM and 248 nM, respectively. In assay [3], the IC50 was found to be 20 nM.
The like results for `CN(C)C/C=C/C(=O)Nc1ccc(F)c(Nc2nc(Nc3cnn(C)c3)ncc2-c2ccc(Br)cc2)c1` [Compound 304, (E)-N-(3-((5-(4-bromophenyl)-2-((1-methyl-1H-pyrazol-4-yl)amino)pyrimidin-4-yl)amino)-4-fluorophenyl)-4-(dimethylamino)but-2-enamide] were, in that order, 1520 nM, 969 nM and 790 nM.
The like results for `C=CC(=O)Nc1ccc(F)c(Nc2nc(N(C)c3cnn(C)c3)ncc2-c2cc(F)cc(OC)c2)c1` [Compound 305, N-(4-fluoro-3-((5-(3-fluoro-5-methoxyphenyl)-2-(methyl(1-methyl-1H-pyrazol-4-yl)amino)pyrimidin-4-yl)amino)phenyl)acrylamide] were, in that order, over 10000 nM, over 10000 nM and over 10000 nM.
